Test in all cases: CDKi biochemical assay (TR-FRET, phosphorylation of S780 on RB1 peptide)
(In general: TR-FRET usually uses a lanthanide donor and a delayed reading to cut background.)

The target of one assay is CDK4/cyclinD1 (Homo sapiens, UniProt P11802). The settings on record: CDK4/cyclinD1 20 pM, 1 mM ATP, 60 min at 25° C. The method in brief: (§1)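 Avi-tagged, biotinylated CDK4/cyclinD1 (20 pM) or CDK6/cyclinD3 (10 pM) phosphorylates 200 nM His-MBP-RB1[773-924] at S780 with 1 mM ATP in HEPES pH 7.5/MgCl2, 60 min, 25° C. After EDTA quench, Eu anti-pRB(S780)/SA-APC TR-FRET is read after 3 h. Apparent IC50 comes from % activity versus log concentration.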

Another assay addresses CDK6/cyclinD3 (Homo sapiens, UniProt Q00534). The following applies: CDK6/cyclinD3 10 pM, 1 mM ATP, 60 min at 25° C. The gist of the method: as §1
The target in a further assay is CDK1/CyclinB1 (Homo sapiens, UniProt P06493). The following applies: CDK1/CyclinB1 10 pM, 1 mM ATP, 60 min at 25° C. The method in brief: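 CDK1/CyclinB1 (10 pM, Avi-tagged, insect-cell expressed) phosphorylated S780 of His-MBP-RB1[773-924] (200 nM) with 1 mM ATP in HEPES pH 7.5, 10 mM MgCl2, 1 mM DTT, 60 min at 25 °C. After EDTA quench, TR-FRET detection (Eu anti-pRB S780, SA-APC) for 3 h; apparent IC50 from percent activity versus log concentration.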

The target in the next assay is CDK2/CyclinE1 (Homo sapiens, UniProt P24941). The settings on record: CDK2/CyclinE1 100 pM, 1 mM ATP, 60 min at 25° C. The method in brief: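 CDK2/CyclinE1 (Avi-tag, 100 pM; CDK2 E. coli-expressed) phosphorylated His-MBP-RB1[773-924] (200 nM) at S780 with 1 mM ATP in HEPES pH 7.5/MgCl2/DTT, 60 min at 25° C. After EDTA quench, TR-FRET detection ran 3 h (Eu anti-p-RB S780, SA-APC). Apparent IC50 came from percent activity versus log concentration.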

In patent publication US20240360137A1 (Novartis AG, priority 2023, published 2024) one finds IC50 data, which are given here for 18 compounds.

The structures appear in SMILES notation.

With `O=C1N([C@@H]2CCC[C@@H](O)C2)c2nc(Nc3c[nH]nc3O[C@H]3CCOC3)ncc2C12CC2` [Example 78, 7′-((1R,3R)-3-hydroxycyclohexyl)-2′-((3-(((S)-tetrahydrofuran-3-yl)oxy)-1H-pyrazol-4-yl)amino)spiro[cyclopropane-1,5′-pyrrolo[2,3-d]pyrimidin]-6′(7′H)-one], the 50% inhibitory concentration (IC50) (commonly the point on the concentration scale where inhibition reaches its midpoint) worked out at 2.6 µM on CDK4/cyclinD1, 3.54 µM against CDK6/cyclinD3, 2.54 µM against CDK1/CyclinB1 and 17 nM on CDK2/CyclinE1.
The corresponding values for `Cc1n[nH]cc1Nc1ncc2c(n1)N([C@@H]1CCCC[C@@H](O)C1)C(=O)C21CC1` [Example 17, 7′-(3-hydroxycycloheptyl)-2′-((3-methyl-1H-pyrazol-4-yl)amino)spiro[cyclopropane-1,5′-pyrrolo[2,3-d]pyrimidin]-6′(7′H)-one] are ≥ 10 µM, ≥ 10 µM, 4.49 µM and 41 nM.
The corresponding values for `CC#Cc1n[nH]cc1Nc1ncc2c(n1)N([C@@H]1CCC[C@@H](O)C1)C(=O)C21CC1` [Example 58, 7′-((1R,3R)-3-hydroxycyclohexyl)-2′-((3-(prop-1-yn-1-yl)-1H-pyrazol-4-yl)amino)spiro[cyclopropane-1,5′-pyrrolo[2,3-d]pyrimidin]-6′(7′H)-one] are 9.5 µM, ≥ 10 µM, 3.54 µM and 16 nM.
Taken in the same sequence, the figures for `Cc1n[nH]cc1Nc1ncc2c(n1)N([C@@H]1CCC[C@@H](O)C1)C(=O)C21CC1` [Example 2, 7′-((1R,3R)-3-hydroxycyclohexyl)-2′-((3-methyl-1H-pyrazol-4-yl)amino)spiro[cyclopropane-1,5′-pyrrolo[2,3-d]pyrimidin]-6′(7′H)-one] were 4.52 µM, 6.68 µM, 1.21 µM and 18 nM.
As to `CC(=O)N1CC2(CC(COc3n[nH]cc3Nc3ncc4c(n3)N([C@@H]3CCC[C@@H](O)C3)C(=O)C43CC3)C2)C1` [Example 53, 2′-((3-((2-acetyl-2-azaspiro[3.3]heptan-6-yl)methoxy)-1H-pyrazol-4-yl)amino)-7′-((1R,3R)-3-hydroxycyclohexyl)spiro[cyclopropane-1,5′-pyrrolo[2,3-d]pyrimidin]-6′(7′H)-one], the half-maximal inhibitory concentration (IC50) at CDK4/cyclinD1 is ≥ 10 µM; against CDK6/cyclinD3, ≥ 10 µM; at CDK1/CyclinB1, ≥ 10 µM; on CDK2/CyclinE1, 186 nM.
As for `O=C1N([C@@H]2CCC[C@@H](O)C2)c2nc(Nc3c[nH]nc3OC3CC3)ncc2C12CC2` [Example 55], the IC50 is 8.5 µM against CDK4/cyclinD1, ≥ 10 µM on CDK6/cyclinD3, 1.43 µM on CDK1/CyclinB1 and 11 nM at CDK2/CyclinE1.
`C[C@]1(O)C[C@H](COc2n[nH]cc2Nc2ncc3c(n2)N([C@@H]2CCC[C@@H](O)C2)C(=O)C32CC2)C1` [Example 65, 2′-((3-(((1r,3R)-3-hydroxy-3-methylcyclobutyl)methoxy)-1H-pyrazol-4-yl)amino)-7′-((1R,3R)-3-hydroxycyclohexyl)spiro[cyclopropane-1,5′-pyrrolo[2,3-d]pyrimidin]-6′(7′H)-one]: the IC50 was 6.9 µM against CDK4/cyclinD1, ≥ 10 µM against CDK6/cyclinD3, 4.49 µM against CDK1/CyclinB1 and 53 nM against CDK2/CyclinE1.
Taken in the same sequence, the figures for `O=C1N([C@@H]2CCC[C@@H](O)C2)c2nc(Nc3c[nH]nc3OC3CCC(F)(F)C3)ncc2C12CC2` (stereo partly drawn) [Example 30] were 6.95 µM, 9.8 µM, 4.27 µM and 22 nM.
With `O=C1N([C@@H]2CCC[C@@H](O)C2)c2nc(Nc3c[nH]nc3OCCO)ncc2C12CC2` [Example 42, 7′-((1R,3R)-3-hydroxycyclohexyl)-2′-((3-(2-hydroxyethoxy)-1H-pyrazol-4-yl)amino)spiro[cyclopropane-1,5′-pyrrolo[2,3-d]pyrimidin]-6′(7′H)-one], the IC50 against CDK4/cyclinD1 came out at 3.64 µM; against CDK6/cyclinD3, 3.01 µM; on CDK1/CyclinB1 it was 3.74 µM; against CDK2/CyclinE1, 24 nM.
The corresponding values for `O=C1N([C@@H]2CCC[C@@H](O)C2)c2nc(Nc3c[nH]nc3CO)ncc2C12CC2` [Example 6, 7′-((1R,3R)-3-hydroxycyclohexyl)-2′-((3-(hydroxymethyl)-1H-pyrazol-4-yl)amino)spiro[cyclopropane-1,5′-pyrrolo[2,3-d]pyrimidin]-6′(7′H)-one] are 0.84 µM, 2.18 µM, 2.94 µM and 32 nM.
Taken in the same sequence, the figures for `O=C1N([C@@H]2CCC[C@@H](O)C2)c2nc(Nc3c[nH]nc3OCC3CC3)ncc2C12CC2` [Example 38, 2′-((3-(cyclopropylmethoxy)-1H-pyrazol-4-yl)amino)-7′-((1R,3R)-3-hydroxycyclohexyl)spiro[cyclopropane-1,5′-pyrrolo[2,3-d]pyrimidin]-6′(7′H)-one] were 6.1 µM, 9.2 µM, 1.04 µM and 8 nM.
The corresponding values for `Cn1ncc(-c2n[nH]cc2Nc2ncc3c(n2)N([C@@H]2CCC[C@@H](O)C2)C(=O)C32CC2)c1C(F)F` [Example 31, 2′-((5′-(difluoromethyl)-1′-methyl-1H,1′H-[3,4′-bipyrazol]-4-yl)amino)-7′-((1R,3R)-3-hydroxycyclohexyl)spiro[cyclopropane-1,5′-pyrrolo[2,3-d]pyrimidin]-6′(7′H)-one] are 6.3 µM, 9.7 µM, 6.57 µM and 21 nM.
On to `Cn1ccc(COc2n[nH]cc2Nc2ncc3c(n2)N([C@@H]2CCC[C@@H](O)C2)C(=O)C32CC2)n1` [Example 43, 7′-((1R,3R)-3-hydroxycyclohexyl)-2′-((3-((1-methyl-1H-pyrazol-3-yl)methoxy)-1H-pyrazol-4-yl)amino)spiro[cyclopropane-1,5′-pyrrolo[2,3-d]pyrimidin]-6′(7′H)-one], for which the IC50 against CDK4/cyclinD1 was 3.09 µM; against CDK6/cyclinD3, 8.84 µM; against CDK1/CyclinB1, 1.76 µM; against CDK2/CyclinE1, 19 nM.
In the case of `O=C1N([C@@H]2CCC[C@@H](O)C2)c2nc(Nc3c[nH]nc3-c3cnn4ccncc34)ncc2C12CC2` [Example 64, 7′-((1R,3R)-3-hydroxycyclohexyl)-2′-((3-(pyrazolo[1,5-a]pyrazin-3-yl)-1H-pyrazol-4-yl)amino)spiro[cyclopropane-1,5′-pyrrolo[2,3-d]pyrimidin]-6′(7′H)-one], the half-inhibitory concentration (IC50) came to 4.7 µM on CDK4/cyclinD1, 6.49 µM against CDK6/cyclinD3, 2.19 µM at CDK1/CyclinB1 and 12 nM on CDK2/CyclinE1.
Taken in the same sequence, the figures for `O=C1N([C@@H]2CCC[C@@H](O)C2)c2nc(Nc3c[nH]nc3O)ncc2C12CC2` [Example 77, 2′-((3-hydroxy-1H-pyrazol-4-yl)amino)-7′-((1R,3R)-3-hydroxycyclohexyl)spiro[cyclopropane-1,5′-pyrrolo[2,3-d]pyrimidin]-6′(7′H)-one] were 1.48 µM, 5.26 µM, 5.82 µM and 121 nM.
Taken in the same sequence, the figures for `Cn1cc(Oc2n[nH]cc2Nc2ncc3c(n2)N([C@@H]2CCC[C@@H](O)C2)C(=O)C32CC2)cn1` [Example 35, 7′-((1R,3R)-3-hydroxycyclohexyl)-2′-((3-((1-methyl-1H-pyrazol-4-yl)oxy)-1H-pyrazol-4-yl)amino)spiro[cyclopropane-1,5′-pyrrolo[2,3-d]pyrimidin]-6′(7′H)-one] were ≥ 10 µM, ≥ 10 µM, 3.16 µM and 54 nM.
As for `COCCOc1n[nH]cc1Nc1ncc2c(n1)N([C@@H]1CCC[C@@H](O)C1)C(=O)C21CC1` [Example 22, 7′-((1R,3R)-3-hydroxycyclohexyl)-2′-((3-(2-methoxyethoxy)-1H-pyrazol-4-yl)amino)spiro[cyclopropane-1,5′-pyrrolo[2,3-d]pyrimidin]-6′(7′H)-one], the IC50 against CDK4/cyclinD1 was determined as 5.26 µM; against CDK6/cyclinD3, 8.12 µM; against CDK1/CyclinB1 it was 2.96 µM; at CDK2/CyclinE1 it was 34 nM.
Taken in the same sequence, the figures for `O=C1N([C@@H]2CCC[C@@H](O)C2)c2nc(Nc3c[nH]nc3OC[C@H]3COC[C@H]3F)ncc2C12CC2` [Example 75, 2′-((3-((-4-fluorotetrahydrofuran-3-yl)methoxy)-1H-pyrazol-4-yl)amino)-7′-((1R,3R)-3-hydroxycyclohexyl)spiro[cyclopropane-1,5′-pyrrolo[2,3-d]pyrimidin]-6′(7′H)-one] were ≥ 10 µM, ≥ 10 µM, 9.16 µM and 72 nM.
